{
  "source": "ChEMBL document CHEMBL6103579",
  "about": "“Antiproliferative activity of selenium-enriched coumarin derivatives on the SK-N-SH neuroblastoma cell line: Mechanistic insights” (Eur J Med Chem, 2025)",
  "key": {"[1]": {"experiment": "Toxicity in female ICR mouse assessed as hyperplasia in liver at 10 to 20 mg/kg, ip by H and E staining based analysis", "type": "organism-based", "conditions": "in vivo, dose 10-20 mg/kg"}, "[2]": {"experiment": "Toxicity in female ICR mouse assessed as change in organ coefficient of kidney at 10 mg/kg, ip […] (reference value: 0.007)", "type": "organism-based", "conditions": "in vivo"}, "SK-N-SH [3]": {"tested_on": "SK-N-SH", "experiment": "Upregulation of Bax/[…] ratio in human SK-N-SH cells at 3 to 9 uM measured after 48 hrs by Western blot analysis", "type": "functional, cell-based", "conditions": "dose 3-9 µM"}, "SK-N-SH [4]": {"tested_on": "SK-N-SH", "experiment": "Induction of mitochondrial dysfunction in human SK-N-SH cells assessed as appearance of ring like distribution at 6 uM measured upto 48 hrs", "type": "functional, cell-based"}, "[5]": {"experiment": "Toxicity in female ICR mouse assessed as histomorphological changes in spleen at 10 to 20 mg/kg, ip H and E staining based analysis", "type": "organism-based", "conditions": "in vivo, dose 10-20 mg/kg"}, "N2a [6]": {"tested_on": "N2a", "experiment": "Antitumor activity against mouse N2a cells implanted in female ICR mouse model assessed as tumor inhibition rate at 10 mg/kg, ip measured upto 8 days relative to control", "type": "functional", "set-up": "scale not given: the % may be the effect or the level left", "conditions": "time <= 8 day"}, "SK-N-SH [7]": {"tested_on": "SK-N-SH", "experiment": "Downregulation of Bcl-2 expression in human SK-N-SH cells at 3 to 9 uM measured after 48 hrs by Western blot analysis", "type": "functional, cell-based", "conditions": "dose 3-9 µM"}, "[8]": {"experiment": "Toxicity in female ICR mouse assessed as change in organ coefficient of liver at 10 mg/kg, ip […] (reference value: 0.058+/-0.010)", "type": "organism-based", "conditions": "in vivo"}, "SK-N-SH [9]": {"tested_on": "SK-N-SH", "experiment": "Antiproliferative activity against human SK-N-SH cells assessed as reduction in cell proliferation incubated for 60 hrs by CCK-8 method", "type": "functional, cell-based", "conditions": "dose 0.5-2 µM"}, "[10]": {"experiment": "Toxicity in female ICR mouse assessed as change in organ coefficient of lung at 10 mg/kg, ip […] (reference value: 0.007+/-0.001)", "type": "organism-based", "conditions": "in vivo"}, "[11]": {"experiment": "Toxicity in female ICR mouse assessed as appearance of homogenous renal corpuscles in kidney at 10 to 20 mg/kg, ip H and E staining based analysis", "type": "organism-based", "conditions": "in vivo, dose 10-20 mg/kg"}, "N2a [12]": {"tested_on": "N2a", "experiment": "Antitumor activity against mouse N2a cells implanted in female ICR mouse model assessed as change in body weight at 20 mg/kg, ip measured upto 8 days (reference value: 25.54 +/-2.19 g)", "type": "functional", "conditions": "time <= 8 day"}, "[13]": {"experiment": "Toxicity in female ICR mouse assessed as effect on body weight loss at 10 to 20 mg/kg, ip", "type": "organism-based", "conditions": "in vivo, dose 10-20 mg/kg"}, "[14]": {"experiment": "Antiproliferative activity against human Neuroblastoma cell assessed as inhibition of cell growth incubated for 60 hrs by CCK-8 method", "type": "functional, cell-based"}, "[15]": {"experiment": "Drug localization in cytoplasm of human SK-N-SH cells assessed as increase in green fluorescence at 6 uM measured after 48 hrs by DAPI staining based fluorescence microscopic analysis", "type": "ADME, subcellular"}, "SK-N-SH [16]": {"tested_on": "SK-N-SH", "experiment": "Upregulation of cytochrome C level in human SK-N-SH cells at 6 uM measured after 48 hrs by immunofluorescence staining based microscopic analysis", "type": "functional, cell-based"}, "[17]": {"experiment": "Toxicity in female ICR mouse assessed as change in organ coefficient of heart at 10 mg/kg, ip […] (reference value: 0.006+/-0.002)", "type": "organism-based", "conditions": "in vivo"}, "Quadruplex DNA": {"target": "Quadruplex DNA", "experiment": "Binding affinity to HRCC G4 DNA (mitochondrial DNA) (unknown origin) assessed as dissociation constant by SPR analysis", "type": "nucleic-acid assay"}, "[18]": {"experiment": "Toxicity in female ICR mouse assessed as appearance of intact glomeruli in kidney at 10 to 20 mg/kg, ip H and E staining based analysis", "type": "organism-based", "conditions": "in vivo, dose 10-20 mg/kg"}, "[19]": {"experiment": "Toxicity in female ICR mouse assessed as change in organ coefficient of lung at 20 mg/kg, ip […] (reference value: 0.007+/-0.001)", "type": "organism-based", "conditions": "in vivo"}, "[20]": {"experiment": "Toxicity in female ICR mouse assessed as change in organ coefficient of spleen at 20 mg/kg, ip […] (reference value: 0.006+/-0.002)", "type": "organism-based", "conditions": "in vivo"}, "SK-N-SH [21]": {"tested_on": "SK-N-SH", "experiment": "Downregulation of caspase-9 expression in human SK-N-SH cells at 3 to 9 uM measured after 48 hrs by Western blot analysis", "type": "functional, cell-based", "conditions": "dose 3-9 µM"}, "SK-N-SH [22]": {"tested_on": "SK-N-SH", "experiment": "Induction of mitochondrial dysfunction in human SK-N-SH cells assessed as appearance of blurred mitochondria at 6 uM measured after 48 hrs by fluorescence microscopic analysis", "type": "functional, cell-based"}, "SK-N-SH [23]": {"tested_on": "SK-N-SH", "experiment": "Antiproliferative activity against human SK-N-SH cells assessed as reduction in cell proliferation at 2 uM incubated for 60 hrs by CCK-8 method relative to control", "type": "functional", "set-up": "scale not given: the % may be the effect or the level left"}, "SK-N-SH [24]": {"tested_on": "SK-N-SH", "experiment": "Inhibition of cell invasion in human SK-N-SH cells at 0.5 to 2 uM measured after 48 hrs by crystal violet staining based microscopic analysis", "type": "functional", "conditions": "dose 0.5-2 µM"}, "[25]": {"experiment": "Toxicity in female ICR mouse assessed as change in organ coefficient of spleen at 10 mg/kg, ip […] (reference value: 0.006+/-0.002)", "type": "organism-based", "conditions": "in vivo"}, "SK-N-SH [26]": {"tested_on": "SK-N-SH", "experiment": "Induction of mitochondrial dysfunction in human SK-N-SH cells assessed as increase in intracellular green fluorescence intensity at 3 to 9 uM", "type": "functional, cell-based", "conditions": "dose 3-9 µM"}, "SK-N-SH [27]": {"tested_on": "SK-N-SH", "experiment": "Induction of mitochondrial dysfunction in human SK-N-SH cells assessed as increase in intracellular green fluorescence intensity at 6 uM", "type": "functional, cell-based", "conditions": "time 2-48 hrs"}, "N2a [28]": {"tested_on": "N2a", "experiment": "Antitumor activity against mouse N2a cells implanted in female ICR mouse model assessed as change in body weight at 10 mg/kg, ip measured upto 8 days (reference value: 25.54 +/-2.19 g)", "type": "functional", "conditions": "time <= 8 day"}, "N2a [29]": {"tested_on": "N2a", "experiment": "Antitumor activity against mouse N2a cells implanted in female ICR mouse model assessed as reduction in cell nuclear size at 10 to 20 mg/kg, ip by H and E staining based analysis", "type": "functional, organism-based", "conditions": "dose 10-20 mg/kg"}, "SK-N-SH [30]": {"tested_on": "SK-N-SH", "experiment": "Inhibition of cell migration in human SK-N-SH cells at 2 uM measured after 48 hrs by crystal violet staining based microscopic analysis relative to control", "type": "functional"}},
  "note": "Active and inactive are the calls of the source. No cut-off for these calls is given here.",
  "data": [
    {"smiles": "N#C[Se]CCCOc1ccc2cc(C(=O)N3N=C(c4ccc(F)cc4)CC3c3ccc(F)cc3)c(=O)oc2c1", "note": "(stereo unspecified)", "values": [
      {"measurement": "Activity", "setting": "[1]", "value": "Non-toxic"},
      {"measurement": "Activity", "setting": "[2]", "value": 0.007},
      {"measurement": "Activity", "setting": "SK-N-SH [3]", "value": "Active"},
      {"measurement": "Activity", "setting": "SK-N-SH [4]", "value": "Active"},
      {"measurement": "Activity", "setting": "[5]", "value": "Non-toxic"},
      {"measurement": "Activity", "setting": "N2a [6]", "value": 79.1, "unit": "%"},
      {"measurement": "Activity", "setting": "SK-N-SH [7]", "value": "Active"},
      {"measurement": "Activity", "setting": "[8]", "value": 0.059},
      {"measurement": "Activity", "setting": "SK-N-SH [9]", "value": "Dose-dependent-effect"},
      {"measurement": "Activity", "setting": "[10]", "value": 0.007},
      {"measurement": "Activity", "setting": "[11]", "value": "Non-toxic"},
      {"measurement": "Activity", "setting": "N2a [12]", "value": 26.34, "unit": "g"},
      {"measurement": "Activity", "setting": "[13]", "value": "Non-toxic"},
      {"measurement": "IC50", "setting": "[14]", "value": 2500, "unit": "nM"},
      {"measurement": "Drug uptake", "setting": "[15]", "value": "Active"},
      {"measurement": "Activity", "setting": "SK-N-SH [16]", "value": "Active"},
      {"measurement": "Activity", "setting": "[17]", "value": 0.005},
      {"measurement": "Kd", "setting": "Quadruplex DNA", "value": 14.2, "unit": "nM"},
      {"measurement": "Activity", "setting": "[18]", "value": "Non-toxic"},
      {"measurement": "Activity", "setting": "[19]", "value": 0.007},
      {"measurement": "Activity", "setting": "[20]", "value": 0.005},
      {"measurement": "Activity", "setting": "SK-N-SH [21]", "value": "Active"},
      {"measurement": "Activity", "setting": "SK-N-SH [22]", "value": "Active"},
      {"measurement": "Activity", "setting": "SK-N-SH [23]", "value": 81.4, "unit": "%"},
      {"measurement": "inhibition", "setting": "SK-N-SH [24]", "value": "Active"},
      {"measurement": "Activity", "setting": "[25]", "value": 0.006},
      {"measurement": "Activity", "setting": "SK-N-SH [26]", "value": "Active"},
      {"measurement": "Activity", "setting": "SK-N-SH [27]", "value": "Time-dependent-effect"},
      {"measurement": "Activity", "setting": "N2a [28]", "value": 27.2, "unit": "g"},
      {"measurement": "Activity", "setting": "N2a [29]", "value": "Active"},
      {"measurement": "inhibition at 2 µM", "setting": "SK-N-SH [30]", "value": 83.2, "unit": "%"}
    ]}
  ]
}
